Source: the supplement of paper PMC10307832

Assays:
Test in all cases: relative viability (nuclei count vs DMSO), 5 days (fraction); higher = more cells survive
GW-2580 + Pictilisib = compound: COC1=CC=C(C=C1)COC2=C(C=C(C=C2)CC3=CN=C(N=C3N)N)OC [GW-2580] + CS(=O)(=O)N1CCN(Cc2cc3nc(-c4cccc5[nH]ncc45)nc(N4CCOCC4)c3s2)CC1 [Pictilisib] (partner 1 µM)
How it was run: (§1)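 A single step with final 0.05% Triton X-100, 1% formaldehyde and 1 ug/ml Hoechst fixed the cells and stained nuclei 5 days after treatment. Lung cancer cell lines in 1536-well plates had been treated by pin tool the day after seeding with one drug alone or a fixed anchor-drug dose plus five library-drug doses (not always all listed) in √10 steps, and nuclei were counted on 4× images. Relative viability is the ratio of nuclei in treated wells to nuclei in vehicle wells, taken as the median of duplicate plates.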

GW-2580 + Pemetrexed = compound: COC1=CC=C(C=C1)COC2=C(C=C(C=C2)CC3=CN=C(N=C3N)N)OC [GW-2580] + Nc1nc2[nH]cc(CCc3ccc(C(=O)N[C@@H](CCC(=O)O)C(=O)O)cc3)c2c(=O)[nH]1 [Pemetrexed] (partner 0.2 µM)
How it was run: as §1

Fedratinib + Trametinib = compound: Cc1cnc(Nc2ccc(OCCN3CCCC3)cc2)nc1Nc1cccc(S(=O)(=O)NC(C)(C)C)c1 [Fedratinib] + CC(=O)Nc1cccc(-n2c(=O)n(C3CC3)c(=O)c3c(Nc4ccc(I)cc4F)n(C)c(=O)c(C)c32)c1 [Trametinib] (partner 0.02 µM)
How it was run: as §1

Fedratinib + Lapatinib = compound: Cc1cnc(Nc2ccc(OCCN3CCCC3)cc2)nc1Nc1cccc(S(=O)(=O)NC(C)(C)C)c1 [Fedratinib] + CS(=O)(=O)CCNCc1ccc(-c2ccc3ncnc(Nc4ccc(OCc5cccc(F)c5)c(Cl)c4)c3c2)o1 [Lapatinib] (partner 2 µM)
How it was run: as §1

Fedratinib + Decitabine = compound: Cc1cnc(Nc2ccc(OCCN3CCCC3)cc2)nc1Nc1cccc(S(=O)(=O)NC(C)(C)C)c1 [Fedratinib] + Nc1ncn([C@H]2C[C@H](O)[C@@H](CO)O2)c(=O)n1 [Decitabine] (partner 2 µM)
How it was run: as §1

UMC-11
relative viability (GW-2580 + Pictilisib; first compound 0.08 µM): 0.828
relative viability (GW-2580 + Pictilisib; first compound 0.8 µM): 1.01
relative viability (GW-2580 + Pictilisib; first compound 2.53 µM): 0.695
relative viability (GW-2580 + Pictilisib; first compound 8 µM): 0.823
relative viability (GW-2580 + Pemetrexed; first compound 0.08 µM): 0.948
relative viability (GW-2580 + Pemetrexed; first compound 0.8 µM): 0.939
relative viability (GW-2580 + Pemetrexed; first compound 2.53 µM): 0.754
relative viability (GW-2580 + Pemetrexed; first compound 8 µM): 0.718
relative viability (Fedratinib + Trametinib; first compound 0.1 µM): 0.625
relative viability (Fedratinib + Trametinib; first compound 0.3162 µM): 0.476
relative viability (Fedratinib + Trametinib; first compound 1 µM): 0.52
relative viability (Fedratinib + Lapatinib; first compound 0.1 µM): 0.825
relative viability (Fedratinib + Lapatinib; first compound 0.3162 µM): 1.08
relative viability (Fedratinib + Lapatinib; first compound 1 µM): 0.284
relative viability (Fedratinib + Decitabine; first compound 0.1 µM): 0.61
relative viability (Fedratinib + Decitabine; first compound 0.3162 µM): 0.603
relative viability (Fedratinib + Decitabine; first compound 1 µM): 0.551
